Measurements taken from US11053225B2, “Pyrimidine derivative compound, optical isomer thereof, or pharmaceutically acceptable salt thereof, and composition for preventing or treating Tyro 3 related disease comprising same as active ingredient” (KOREA RESEARCH INSTITUTE OF CHEMICAL TECHNOLOGY, priority 2017, dated 2021).

Assays:
[1] = target: hERG (Homo sapiens (Human), UniProt Q12809); assay: human ether-a-go-go-related gene (hERG) assay; conditions: for hERG toxicity: result in words
Experimental: In the development of medicines, drug toxicity as well as therapeutic effects plays an important role. One of the most commonly used criteria for determining drug toxicity is human ether-a-go-go-related gene (hERG) toxicity. Most pharmaceutical companies determine a drug showing a hERG IC50 value of less than 0.1 μM to be highly toxic, and thus stop the development of the drug. Whereas, the companies determine a drug showing a hERG IC50 value of 10 μM or more to be non-toxic.
For investigation of the degree of drug toxicity by TAM receptor inhibiting compounds of the present invention, human ether-a-go-go-related gene (hERG) assay was performed on Compounds 29, 60, 73, 75, 84, 89, and 132 on Table 4.

[2] = target: Axl (Homo sapiens (Human), UniProt P30530); assay: Axl kinase inhibition assay (Cisbio method, Eu-labeled antibody to phosphorylated peptide); conditions: read-out: IC50 (μM) Axl; 1 hour reaction with substrate peptide and ATP
Sequence of Axl (P30530 26-894): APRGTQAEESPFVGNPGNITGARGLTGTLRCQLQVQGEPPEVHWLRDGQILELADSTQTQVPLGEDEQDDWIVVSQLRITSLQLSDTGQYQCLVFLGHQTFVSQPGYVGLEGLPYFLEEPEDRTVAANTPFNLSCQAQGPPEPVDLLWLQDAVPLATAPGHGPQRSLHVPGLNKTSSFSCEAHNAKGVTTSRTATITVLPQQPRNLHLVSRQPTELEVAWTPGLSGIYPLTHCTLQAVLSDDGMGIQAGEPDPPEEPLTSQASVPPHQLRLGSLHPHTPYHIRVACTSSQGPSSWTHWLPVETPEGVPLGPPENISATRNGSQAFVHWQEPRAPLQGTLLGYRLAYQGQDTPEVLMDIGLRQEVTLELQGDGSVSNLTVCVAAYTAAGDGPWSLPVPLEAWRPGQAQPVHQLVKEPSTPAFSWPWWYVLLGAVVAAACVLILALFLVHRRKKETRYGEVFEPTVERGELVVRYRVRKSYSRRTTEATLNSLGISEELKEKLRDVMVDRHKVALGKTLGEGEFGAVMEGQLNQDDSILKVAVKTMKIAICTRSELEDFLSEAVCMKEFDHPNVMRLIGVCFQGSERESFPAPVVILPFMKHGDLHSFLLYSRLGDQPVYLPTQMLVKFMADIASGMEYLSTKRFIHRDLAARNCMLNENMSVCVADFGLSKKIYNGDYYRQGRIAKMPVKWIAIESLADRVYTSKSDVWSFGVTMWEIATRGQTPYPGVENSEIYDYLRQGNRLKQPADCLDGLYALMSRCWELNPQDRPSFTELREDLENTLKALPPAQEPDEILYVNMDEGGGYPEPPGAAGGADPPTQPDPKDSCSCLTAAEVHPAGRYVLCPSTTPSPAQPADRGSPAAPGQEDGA
Experimental: (§1) For evaluation of inhibitory activities of the compounds according to the present invention on Tyro 3, Axl, and Mer, the following test was carried out.
(§2) The specific test method followed the method provided by Cisbio. The compounds of the examples were prepared at various concentrations, followed by addition of Tyro 3, Axl, or Mer and substrate peptides, and then ATP was added to initiate a reaction. After 1 hour, the reaction was stopped by addition of a solution containing EDTA. Thereafter, the amount of phosphorylated peptides was measured. Here, the phosphorylated peptides were treated with an europium (Eu)-labeled antibody recognizing phosphorylated peptides, and then after 1 hour, excited by irradiation of the light of a wavelength of 320 or 340 nm using an Envision Reader.

[3] = target: Tyro 3 (Homo sapiens (Human), UniProt Q06418); assay: Tyro 3 kinase inhibition assay (Cisbio method, Eu-labeled antibody to phosphorylated peptide); conditions: read-out: IC50 (μM) Tyro 3; 1 hour reaction with substrate peptide and ATP
Sequence of Tyro 3 (Q06418 41-890): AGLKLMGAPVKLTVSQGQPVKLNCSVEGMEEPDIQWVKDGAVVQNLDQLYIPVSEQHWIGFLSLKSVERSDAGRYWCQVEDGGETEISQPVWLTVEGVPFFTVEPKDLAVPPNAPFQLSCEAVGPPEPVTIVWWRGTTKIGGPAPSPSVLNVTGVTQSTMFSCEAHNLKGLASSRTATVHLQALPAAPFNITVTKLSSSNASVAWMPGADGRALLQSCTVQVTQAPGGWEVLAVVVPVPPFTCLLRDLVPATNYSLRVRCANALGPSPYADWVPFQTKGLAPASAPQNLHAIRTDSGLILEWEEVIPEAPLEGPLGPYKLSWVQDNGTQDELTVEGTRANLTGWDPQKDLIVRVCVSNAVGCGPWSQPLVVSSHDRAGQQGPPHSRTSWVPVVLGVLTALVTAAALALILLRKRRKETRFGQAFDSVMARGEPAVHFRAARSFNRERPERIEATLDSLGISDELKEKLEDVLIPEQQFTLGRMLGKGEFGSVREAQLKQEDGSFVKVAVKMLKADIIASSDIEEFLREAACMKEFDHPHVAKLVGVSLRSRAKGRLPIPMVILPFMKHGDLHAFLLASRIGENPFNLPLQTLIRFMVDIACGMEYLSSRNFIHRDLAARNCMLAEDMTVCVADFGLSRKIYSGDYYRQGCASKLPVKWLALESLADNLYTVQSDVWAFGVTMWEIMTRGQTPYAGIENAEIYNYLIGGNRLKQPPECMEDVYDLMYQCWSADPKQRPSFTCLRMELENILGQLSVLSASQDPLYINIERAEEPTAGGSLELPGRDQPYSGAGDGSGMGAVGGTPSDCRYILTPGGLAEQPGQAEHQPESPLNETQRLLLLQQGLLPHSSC
Experimental: as §1, §2

[4] = target: Mer (Homo sapiens (Human), UniProt Q12866); assay: Mer kinase inhibition assay (Cisbio method, Eu-labeled antibody to phosphorylated peptide); conditions: read-out: IC50 (μM) Mer; 1 hour reaction with substrate peptide and ATP
Sequence of Mer (Q12866 21-999): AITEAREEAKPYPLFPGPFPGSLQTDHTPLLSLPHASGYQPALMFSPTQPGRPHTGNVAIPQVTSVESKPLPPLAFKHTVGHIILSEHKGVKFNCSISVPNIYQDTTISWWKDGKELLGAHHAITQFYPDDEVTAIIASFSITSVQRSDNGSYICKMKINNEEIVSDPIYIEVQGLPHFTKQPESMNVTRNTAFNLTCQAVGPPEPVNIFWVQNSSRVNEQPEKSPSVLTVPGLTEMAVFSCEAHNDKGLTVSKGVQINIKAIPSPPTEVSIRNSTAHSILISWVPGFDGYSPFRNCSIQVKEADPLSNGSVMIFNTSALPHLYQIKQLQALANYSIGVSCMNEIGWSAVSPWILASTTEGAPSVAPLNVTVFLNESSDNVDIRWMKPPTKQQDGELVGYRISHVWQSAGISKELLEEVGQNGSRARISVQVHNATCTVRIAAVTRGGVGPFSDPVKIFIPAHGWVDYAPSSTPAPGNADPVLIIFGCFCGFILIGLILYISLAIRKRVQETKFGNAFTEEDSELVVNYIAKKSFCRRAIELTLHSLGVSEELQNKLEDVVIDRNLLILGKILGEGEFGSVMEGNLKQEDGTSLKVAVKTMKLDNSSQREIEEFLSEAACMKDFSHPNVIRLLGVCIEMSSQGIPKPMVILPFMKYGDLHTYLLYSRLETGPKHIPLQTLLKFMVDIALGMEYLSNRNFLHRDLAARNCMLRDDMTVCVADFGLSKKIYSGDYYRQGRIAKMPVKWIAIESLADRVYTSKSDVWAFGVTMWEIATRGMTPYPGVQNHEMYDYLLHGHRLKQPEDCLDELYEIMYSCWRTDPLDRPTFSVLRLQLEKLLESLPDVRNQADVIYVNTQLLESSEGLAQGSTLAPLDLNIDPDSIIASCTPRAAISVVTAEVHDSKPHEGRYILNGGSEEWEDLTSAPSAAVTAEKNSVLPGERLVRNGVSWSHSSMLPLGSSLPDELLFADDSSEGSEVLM
Experimental: as §1, §2

Sequence of hERG (Q12809 whole entry): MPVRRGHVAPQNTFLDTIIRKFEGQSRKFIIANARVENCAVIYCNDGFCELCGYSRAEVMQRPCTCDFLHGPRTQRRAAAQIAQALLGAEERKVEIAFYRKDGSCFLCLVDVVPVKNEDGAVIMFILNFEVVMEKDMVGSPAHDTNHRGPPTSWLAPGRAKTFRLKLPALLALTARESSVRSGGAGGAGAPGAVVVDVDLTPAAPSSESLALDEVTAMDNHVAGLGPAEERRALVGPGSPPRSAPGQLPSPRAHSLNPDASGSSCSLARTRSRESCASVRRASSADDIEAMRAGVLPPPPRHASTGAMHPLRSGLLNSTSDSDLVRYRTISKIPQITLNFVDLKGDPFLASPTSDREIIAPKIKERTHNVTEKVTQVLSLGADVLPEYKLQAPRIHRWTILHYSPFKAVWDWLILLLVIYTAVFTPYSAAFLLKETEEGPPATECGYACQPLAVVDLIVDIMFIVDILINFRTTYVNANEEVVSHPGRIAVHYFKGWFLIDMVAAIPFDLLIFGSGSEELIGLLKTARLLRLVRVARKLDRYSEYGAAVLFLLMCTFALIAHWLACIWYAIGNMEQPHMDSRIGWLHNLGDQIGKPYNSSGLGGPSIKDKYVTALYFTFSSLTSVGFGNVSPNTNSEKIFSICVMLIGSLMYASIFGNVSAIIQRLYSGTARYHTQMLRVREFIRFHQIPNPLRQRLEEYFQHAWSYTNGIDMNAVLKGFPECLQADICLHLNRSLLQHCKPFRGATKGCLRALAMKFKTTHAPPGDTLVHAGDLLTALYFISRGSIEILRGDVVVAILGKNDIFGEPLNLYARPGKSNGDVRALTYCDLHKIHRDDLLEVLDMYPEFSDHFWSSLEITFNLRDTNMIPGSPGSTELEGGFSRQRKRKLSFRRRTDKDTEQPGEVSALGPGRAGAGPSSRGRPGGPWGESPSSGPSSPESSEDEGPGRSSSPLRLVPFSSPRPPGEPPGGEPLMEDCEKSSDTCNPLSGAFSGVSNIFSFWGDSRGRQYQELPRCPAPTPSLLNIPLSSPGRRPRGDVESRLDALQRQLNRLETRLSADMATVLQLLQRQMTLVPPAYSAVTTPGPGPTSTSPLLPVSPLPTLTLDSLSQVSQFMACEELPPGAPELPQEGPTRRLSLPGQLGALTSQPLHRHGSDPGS

## Cn1cc(-c2cnc(Nc3cc(Cl)cc(Cl)c3)nc2NC2CCNCC2)cn1 [Compound 29, N2-(3,5-dichlorophenyl)-5-(1-methyl-1H-pyrazol-4-yl)-N4-(piperidin-4-yl)pyrimidine-2,4-diamine]
[1]
  IC50: ≤ 1 µM

## Clc1cc(Cl)cc(Nc2ncc(-c3cnn(C4CCNCC4)c3)c(Nc3ccc4c(c3)CNCC4)n2)c1 [Compound 132, N2-(3,5-dichlorophenyl)-5-(1-(piperidin-4-yl)-1H-pyrazol-4-yl)-N4-(1,2,3,4-tetrahydroisoquinolin-7-yl)pyrimidine-2,4-diamine]
[1]
  hERG toxicity: no hERG toxicity

## OCCn1cc(-c2cnc(Nc3cc(Cl)cc(Cl)c3)nc2Nc2ccc3c(c2)CNCC3)cn1 [Compound 89, 2-(4-(2-(3,5-dichlorophenylamino)-4-(1,2,3,4-tetrahydroisoquinolin-7-ylamino)pyrimidin-5-yl)-1H-pyrazol-1-yl)ethanol]
[1]
  hERG toxicity: no hERG toxicity

## Cn1cc(-c2cnc(Nc3cc(Cl)cc(Cl)c3)nc2Nc2ccc3c(c2)CNCC3)cn1 [Compound 84, N2-(3,5-dichlorophenyl)-5-(1-methyl-1H-pyrazol-4-yl)-N4-(1,2,3,4-tetrahydroisoquinolin-7-yl)pyrimidine-2,4-diamine]
[1]
  hERG toxicity: no hERG toxicity

## COc1cccc(-c2cnc(Nc3cc(Cl)cc(Cl)c3)nc2NC2CCNCC2)c1 [Compound 60, N2-(3,5-dichlorophenyl)-5-(3-methoxyphenyl)-N4-(piperidin-4-yl)pyrimidine-2,4-diamine]
[1]
  IC50: ≤ 1 µM

## Cn1cc(-c2cnc(Nc3cc(C(F)(F)F)cc(C(F)(F)F)c3)nc2Nc2ccc3c(c2)CN(C(=O)C(F)(F)F)CC3)cn1 [Compound 139, 1-(7-(2-(3,5-bis(trifluoromethyl)phenylamino)-5-(1-methyl-1H-pyrazol-4-yl)pyrimidin-4-ylamino)-3,4-dihydroisoquinolin-2(1H)-yl)-2,2,2-trifluoroethan-1-one]
[2]
  IC50: > 10 µM
[3]
  IC50: 6.2e-06 µM

## Cn1cc(-c2cnc(Cl)nc2NC2CCCCC2)cn1 [Compound 4, 2-chloro-N4-cyclohexyl-5-(1-methyl-1H-pyrazol-4-yl)pyrimidine-4-amine]
[3]
  IC50: > 10 µM
[4]
  IC50: > 10 µM

## Cc1ccc(Nc2ncc(Br)c(NC3CCCCC3)n2)cc1 [Compound 1, 5-bromo-N4-cyclohexyl-N2-(p-tolyl)pyrimidine-2,4-diamine]
[2]
  IC50: > 10 µM
[3]
  IC50: > 10 µM
[4]
  IC50: > 10 µM

## CCOc1cn(-c2ccc(F)cc2C)nc1C(=O)Nc1ccc(Oc2ccnc3cc(OC)c(OC)cc23)c(F)c1 [LDC1267, reference compound]
[4]
  IC50: 0.068 µM

## Cc1ccc(Nc2ncc(-c3ccoc3)c(NC3CCCCC3)n2)cc1 [Compound 14, N4-cyclohexyl-5-(furan-3-yl)-N2-(p-tolyl)pyrimidine-2,4-diamine]
[2]
  IC50: > 10 µM

## COc1ccc(-c2cnc(Nc3cccc(Cl)c3)nc2NC2CCN(C(=O)C(F)(F)F)CC2)cc1OC [Compound 69, 1-(4-(2-(3-chlorophenylamino)-5-(3,4-dimethoxyphenyl)pyrimidin-4-ylamino)piperidin-1-yl)-2,2,2-trifluoroethanone]
[2]
  IC50: > 10 µM

## COc1cc(Nc2ncc(-c3cnn(C)c3)c(Nc3ccc4c(c3)CN(C(=O)C(F)(F)F)CC4)n2)cc(OC)c1 [Compound 138, 1-(7-(2-(3,5-dimethoxyphenylamino)-5-(1-methyl-1H-pyrazol-4-yl)pyrimidin-4-ylamino)-3,4-dihydroisoquinolin-2(1H)-yl)-2,2,2-trifluoroethan-1-one]
[2]
  IC50: > 10 µM

## Clc1cc(Cl)cc(Nc2ncc(-c3cnn(C4CCNCC4)c3)c(NC3CCNCC3)n2)c1 [Compound 73, N2-(3,5-dichlorophenyl)-N4-(piperidin-4-yl)-5-(1-(piperidin-4-yl)-1H-pyrazol-4-yl)pyrimidine-2,4-diamine]
[1]
  IC50: ≥ 50 µM

## OCCn1cc(-c2cnc(Nc3cc(Cl)cc(Cl)c3)nc2NC2CCNCC2)cn1 [Compound 75, 2-(4-(2-(3,5-dichlorophenylamino)-4-(piperidin-4-ylamino)pyrimidin-5-yl)-1H-pyrazol-1-yl)ethanol]
[1]
  IC50: ≥ 50 µM

## Cc1cccc(Nc2ncc(-c3ccoc3)c(NC3CCN(C(=O)C(F)(F)F)CC3)n2)c1 [Compound 50, 1-(4-(2-(m-toluidino)-5-(furan-3-yl)pyrimidin-4-ylamino)piperidin-1-yl)-2,2,2-trifluoroethanone]
[2]
  IC50: > 10 µM

## Cn1cc(-c2cnc(NC34CC5CC(CC(C5)C3)C4)nc2NC2CCCCC2)cn1 [Compound 23, N4-cyclohexyl-N2-adamantyl-5-(1-methyl-1H-pyrazol-4-yl)pyrimidine-2,4-diamine]
[2]
  IC50: > 10 µM

## Cn1cc(-c2cnc(Nc3ccc4c(c3)CNCC4)nc2N[C@H]2CC[C@@H](N)CC2)cn1 [Compound 88, N4-((1s,4s)-4-aminocyclohexyl)-5-(1-methyl-1H-pyrazol-4-yl)-N2-(1,2,3,4-tetrahydroisoquinolin-7-yl)pyrimidin-2,4-diamine]
[2]
  IC50: > 10 µM

## COc1ccc(Nc2ncc(-c3ccc(OC)c(OC)c3)c(NC3CCN(C(=O)C(F)(F)F)CC3)n2)cc1 [Compound 64, 1-(4-(5-(3,4-dimethoxyphenyl)-2-(4-methoxyphenylamino)pyrimidin-4-ylamino)piperidin-1-yl)-2,2,2-trifluoroethanone]
[2]
  IC50: > 10 µM

## Cn1cc(-c2cnc(Nc3cc(Cl)cc(Cl)c3)nc2NC2CCCCC2)cn1 [Compound 5, N4-cyclohexyl-N2-(3,5-dichlorophenyl)-5-(1-methyl-1H-pyrazol-4-yl)pyrimidine-2,4-diamine]
[2]
  IC50: > 10 µM
[4]
  IC50: > 2 µM

## O=C(N1CCc2ccc(Nc3nc(Nc4cccc(Cl)c4Cl)ncc3-c3cnn(CCO)c3)cc2C1)C(F)(F)F [Compound 125, 1-(7-(2-(2,3-dichlorophenylamino)-5-(1-(2-hydroxyethyl)-1H-pyrazol-4-yl)pyrimidin-4-ylamino)-3,4-dihydroisoquinolin-2(1H)-yl)-2,2,2-trifluoroethanone]
[2]
  IC50: > 10 µM

## COc1ccc(Nc2ncc(-c3cnn(C)c3)c(NC3CCN(C(=O)C(F)(F)F)CC3)n2)cc1 [Compound 44, 1-(4-(2-(4-methoxyphenylamino)-5-(1-methyl-1H-pyrazol-4-yl)pyrimidin-4-ylamino)piperidin-1-yl)-2,2,2-trifluoroethanone]
[2]
  IC50: > 10 µM

## O=C(N1CCC(Nc2nc(Nc3cc(Cl)cc(Cl)c3)ncc2-c2cnn(CCO)c2)CC1)C(F)(F)F [Compound 71, 1-(4-(2-(3,5-dichlorophenylamino)-5-(1-(2-hydroxyethyl)-1H-pyrazol-4-yl)pyrimidin-4-ylamino)piperidin-1-yl)-2,2,2-trifluoroethanone]
[2]
  IC50: > 10 µM
